We go through 14 compounds from patent US20240391904A1, “DIHYDROPYRIMIDINE BASED COMPOUND, PREPARATION METHOD THEREFOR AND USE OF THEREOF” (CHENGDU SHIBEIKANG BIOMEDICAL TECHNOLOGY CO., LTD., priority 2021, published 2024).

Assay [1] relates to KM mice. Kind of assay: Mouse cough test (ammonia-induced coughing). The class given is in vivo. The following applies: for Number of Coughs (time): mice, 30 mg/kg by gavage. The text has this:
Compounds of Example 1-24 (synthesized in the inventor's laboratory), positive control drug (gefapixant, batch No: 01030-210326-2-1, purchased from Holder Pharmaceuticals), the compound of Comparative Example 1 (synthesized in the inventor's laboratory).
Healthy adult KM mice, half of them are male and half of them are female, 6 per group, weighing about 28-30 g.
Most of the animal coughing models currently reported in the literatures use mechanical, chemical and electrical stimulations to stimulate the nerves and receptors of the animals to trigger coughing. According to the characteristics of the candidate compounds and the existing similar target compounds for reference, the method of concentrated ammonia induction was initially chosen to establish the cough modeling test in mice.
Preparation of 50% ammonia solution: 2.5 ml of ammonia was dissolved in […] of a 0.9% sodium chloride solution for injection and mixed evenly.
Preparation of a solution of the compound of Comparative Example 1: 9 mg of the compound of Comparative Example 1 was weighed and dissolved in 3 ml of a 0.5% CMC-Na solution, and mixed evenly to prepare a 3 mg/ml solution.
Preparation of a solution of the example compounds: 9 mg of the example compound was weighed and dissolved in 3 ml of a 0.5% CMC-Na solution, and mixed evenly to prepare a 3 mg/ml solution.
Grouping: a positive control group, a Comparative Example 1 group, Example 1 group-Example 24 group, and a model group were set up. Six KM mice were taken from each group and administered by gavage; here, the Comparative Example 1 group was given the compound of Comparative Example 1, the positive control group was given the positive control drug (gefapixant, commercially purchased), the Example groups were given the compounds prepared in the corresponding Examples, with each group given one of three dosages: 30 mg/kg, […], and 3 mg/kg; and the model group was given the same volume of 0.5% CMC-Na solution.
30 min, 60 min or 120 min after administration, the mice were placed in a 500 ml beaker with a cotton ball (weight 100±5 mg) containing 0.3 ml of 50% ammonia.
(1) Judgment criteria of coughing: coughing was manifest in contraction of abdominal muscles or chest contraction, with mouth wide opening and a coughing sound.
(2) The number of coughs (times) within 3 min was recorded with a stopwatch, and the data were statistically analyzed by software, with the data in each group shown in mean±standard deviation. A one-way analysis of variance among the groups was conducted, and P<0.05 was considered a difference having a statistical significance.

In assay [2] the target is T1, human P2X3 receptor (Homo sapiens, UniProt P56373).
T1 sequence (P56373 1-397): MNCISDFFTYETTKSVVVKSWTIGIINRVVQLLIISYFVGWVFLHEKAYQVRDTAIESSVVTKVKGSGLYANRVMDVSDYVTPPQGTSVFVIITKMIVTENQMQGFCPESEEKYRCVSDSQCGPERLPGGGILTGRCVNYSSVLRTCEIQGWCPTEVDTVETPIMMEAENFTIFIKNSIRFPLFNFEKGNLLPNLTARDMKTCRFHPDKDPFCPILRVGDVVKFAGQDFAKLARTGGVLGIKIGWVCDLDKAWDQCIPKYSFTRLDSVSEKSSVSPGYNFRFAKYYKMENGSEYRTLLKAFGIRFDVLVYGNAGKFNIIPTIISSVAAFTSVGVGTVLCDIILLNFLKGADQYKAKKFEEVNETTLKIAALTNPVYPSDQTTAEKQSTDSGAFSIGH
Description: In vitro bioactivity evaluation: FLIPR antagonist mode, HEK 293 cells stably transfected with human P2X3 receptor, BZATP agonist.
Description: Cell culture medium: DMEM high glucose; 10% FBS; 1% PenStrep.
The Petri dish was placed in an incubator for 1-3 minutes or until the cells were digested, 3 mL of a complete medium was then added to terminate the digestion, and the cell density was determined by a cell counter. • 2) After centrifugation at 1000 rpm/min for 5 min, the cells were resuspended in a growth medium and the volume of the suspension was adjusted to reach a cell density of 4×10^5 cells/mL (1×10^4 cells/25 μL). • 3) 10 μL of 5× Matrigel was added into a black microplate, and the microplate was placed in an incubator for 15 min. The microplate was removed and invertedly centrifuged at 300 g/min for 30 s to remove the 5× Matrigel.

Setting [3] is: 30 min after administration, coughs within 3 min, ammonia-induced.
Where [4] appears, read: 30 mg/kg, 30 min after administration.
The mark [5] stands for this setting: 60 min after administration, coughs within 3 min (Table 5).

Marks after values point to notes of the source that are not given here.

As for `C[C@@H](Cn1c(=O)cc(Nc2ccc(Oc3cnccn3)cc2)n(Cc2ccc(Cl)cc2)c1=O)C(=O)O` [Compound 2], the “Number of Coughs (time)” value in assay [1] (setting [3]) was 27.67* time.
For the compound `O=C(O)C1(Cn2c(=O)cc(Nc3ccc(Oc4ccccn4)cc3)n(Cc3ccc(Cl)cc3)c2=O)CC1` [Compound 13], the half-maximal inhibitory concentration (IC50) (usually the point on the concentration scale where inhibition reaches its midpoint) in assay [2] was 10.1 to 50 nM. Besides, in assay [1] (setting [3]), the “Number of Coughs (time)” value stood at 25.60 time.
Compound `COC(=O)C1(Cn2c(=O)cc(Nc3ccc(Oc4ccccn4)cc3)n(Cc3ccc(Cl)cc3)c2=O)CC1` [Compound 14] yielded an IC50 in assay [2] of 10.1 to 50 nM. In assay [1] (setting [3]), the “Number of Coughs (time)” value stood at 32.17 time.
The corresponding values for `C[C@@H](Cn1c(=O)cc(Nc2ccc(Oc3ccccc3)cc2)n(Cc2ccc(Cl)cc2)c1=O)C(=O)NS(C)(=O)=O` [Compound 23] are 50.1 to 100 nM and 34.67 time.
In the case of `CC(C)(Cn1c(=O)cc(Nc2ccc(Oc3ccccn3)cc2)n(Cc2ccc(Cl)cc2)c1=O)C(=O)O` [Compound 10], the IC50 in assay [2] was less than 10 nM. In assay [1] (30 mg/kg, 30 to 120 min after administration), the “duration of the cough suppression action” value was “short duration of action”. For the same compound, the “cough suppressing effect compared with the positive compound” value in assay [1] (setting [4]) was “stronger than that of the positive compound”. Moreover, the “cough suppressing effect at 60 min” value in assay [1] (30 mg/kg, 60 min after administration) is recorded as “no cough suppressing effect at 60 min”. Besides, the “Number of Coughs (time)” value in assay [1] (setting [3]) was 17.20** time; in assay [1] (setting [5]), 40.17 time.
`C[C@@H](Cn1c(=O)cc(Nc2ccc(Oc3ncccc3F)cc2)n(Cc2ccc(Cl)cc2)c1=O)C(=O)O` [Comparative Example 1, reference compound]: the IC50 in assay [2] lay within 10.1 to 50 nM. In addition, in assay [1] (30 mg/kg, 120 min after administration), the “cough suppressing effect at 120 min” value is “did not have a significant cough suppressing effect at 120 min”. The “Number of Coughs (time)” value was 25.61* time in assay [1] (setting [3]); 24.12** time in assay [1] (60 min after administration, coughs within 3 min (Table 6)); 44.17 time in assay [1] (120 min after administration, coughs within 3 min).
In assay [2], `CC(C)(Cn1c(=O)cc(Nc2ccc(Oc3cnccn3)cc2)n(Cc2ccc(Cl)cc2)c1=O)C(=O)NS(C)(=O)=O` [Compound 6] returned an IC50 of 10.1 to 50 nM. Also, the “cough suppressing effect compared with the positive compound” value in assay [1] (setting [4]) was “stronger than that of the positive compound”. The “Number of Coughs (time)” value in assay [1] (setting [3]) is listed as 17.81** time.
Compound `COC(=O)C(C)(C)Cn1c(=O)cc(Nc2ccc(Oc3ccccn3)cc2)n(Cc2ccc(Cl)cc2)c1=O` [Compound 11] returned an IC50 in assay [2] of 10.1 to 50 nM. Also, the “Number of Coughs (time)” value in assay [1] (setting [3]) turned out to be 31.00 time.
In assay [2], `COC(=O)[C@@H](C)Cn1c(=O)cc(Nc2ccc(Oc3ccccn3)cc2)n(Cc2ccc(Cl)cc2)c1=O` [Compound 8] displayed an IC50 of 10.1 to 50 nM. For the same compound, the “Number of Coughs (time)” value in assay [1] (setting [3]) was 25.00* time; in assay [1] (setting [5]), 27.33* time.
`CC(C)(Cn1c(=O)cc(Nc2ccc(Oc3cnccn3)cc2)n(Cc2ccc(Cl)cc2)c1=O)C(=O)O` [Compound 5]: the “Number of Coughs (time)” value in assay [1] (setting [3]) turned out to be 33.67 time.
`COC(=O)C(C)(C)Cn1c(=O)cc(Nc2ccc(Oc3cnccn3)cc2)n(Cc2ccc(Cl)cc2)c1=O` [Compound 4] yielded an IC50 in assay [2] of less than 10 nM. The “cough suppressing effect compared with the positive compound” value in assay [1] (setting [4]) was “stronger than that of the positive compound”. Besides, in assay [1] (setting [3]), the “Number of Coughs (time)” value was 15.61** time.
Take `C[C@@H](Cn1c(=O)cc(Nc2ccc(Oc3ccc(OC(F)(F)F)cn3)cc2)n(Cc2ccc(Cl)cc2)c1=O)C(=O)NS(C)(=O)=O` [Compound 19, (S)-3-(3-(4-chlorobenzyl)-2,6-dioxo-4-(4-(5-((5-trifluoromethoxy)pyridin-2-yl)oxyphenyl)amino)-3,6-dihydropyrimidin-1(2H)-yl)-2-methyl-N-(sulfonyl)propionamide group]: the “cough suppressing effect compared with the positive compound” value in assay [1] (setting [4]) was “stronger than that of the positive compound”. The “Number of Coughs (time)” value in assay [1] (setting [3]) is listed as 17.62** time.
As to `C[C@@H](Cn1c(=O)cc(Nc2ccc(Oc3ccc(Cl)cn3)cc2)n(Cc2ccc(Cl)cc2)c1=O)C(=O)NS(C)(=O)=O` [Compound 21], the “Number of Coughs (time)” value in assay [1] (setting [3]) is reported as 18.83** time.
`C[C@@H](Cn1c(=O)cc(Nc2ccc(Oc3ccccn3)cc2)n(Cc2ccc(C(F)(F)F)cc2)c1=O)C(=O)NS(C)(=O)=O` [Compound 18]: the “Number of Coughs (time)” value in assay [1] (setting [3]) is 20.57** time.
